Test results as given in patent publication US4082735A, “Novel immunological adjuvant compounds and methods of preparation thereof” (Syntex (U.S.A.) Inc., priority 1976, dated 1978).

Columns and labels:
guinea pigs [1] = assay: Delayed hypersensitivity to arsanilic tyrosine, skin test after immunisation with antigen mixture plus test compound in FIA; type: in vivo; conditions: relative to FIA = 1; dose 50 μg per guinea pig, subcutaneous in FIA emulsion; skin test day 14, read at 24 hours
Method: (§1) The antigen mixture used consists of 20 μg. of arsanilic tyrosine and 100 μg. of protein [either bovine serum albumin (BSA) or ovalbumin]. The antigen mixture and the compounds to be tested, at the dose levels per guinea pig shown in the Table below, are dissolved in saline and emulsified with an equal volume of Freund's Incomplete Adjuvant (FIA). Groups of ten guinea pigs are used for each test compound and each guinea pig is injected with 0.1 ml. of the above emulsion, subcutaneously, in the nuchal region. Control groups are given the antigen mixture alone emulsified with FIA.
After 14 days, all animals are skin tested using 25 μg arsanilic tyrosine conjugated to either BSA or ovalbumin (BSA is used in this test when ovalbumin is present in the antigen mixture and vice versa) which is given in 0.1 ml saline intradermally in the flanks of the animals. […] Thus, the procedure is as follows: skin tests with a high degree of infiltration are scored as ++ and assigned the number 3; those with a lesser degree are scored as + and given the number 2, whereas skin reactions with no infiltration are scored as zero and assigned the number 1. […]

guinea pigs [2] = assay: Antibody titre (antibovine serum albumin or antiovalbumin antibodies) by passive hemagglutination or Farr radioimmune assay; type: in vivo; conditions: relative to FIA = 1; dose 50 μg per guinea pig, subcutaneous in FIA emulsion; sera day 42
Method: as §1
On day 42 all animals are bled by cardiac puncture and the sera assayed for antibovine serum albumin or antiovalbumin antibodies by the passive hemagglutination technique or by radiommune assay using the Farr techbique (P. Minden and R.S. Farr in "Handbook of Experimental Immunology", edited by D.M. Weir, Chapter 15, Volume 1, Blackwell Scientific Publications, Oxford) using 125 iodine labeled bovine serum albumin. Average potencies of these assays are presented in Column 2 of the Table below relative to FIA having the value of one.

dogs = assay: Side effects in dogs after inoculation; type: in vivo, dog; conditions: 4 dogs
From the text: A. 48 Dogs were divided into groups and inoculated with the amounts of compound (per kilogram of body weight) as shown in the following Table: […]

cats = assay: Side effects in cats after inoculation; type: in vivo, cat; conditions: 1500 μg per kilogram
From the text: B. Seven cats were divided into groups and inoculated with the amounts of compounds (per kilogram of body weight) as shown in the following Table: […]

| Compound | Average Potency, Delayed Hypersensitivity to Arsanilic Tyrosine (guinea pigs [1]) | Average Potency, Antibody Titre (guinea pigs [2]) | dogs showing severe depression, excessive salivation and vomiting (dogs; 240 μg per kilogram of body weight) | dogs showing severe depression, excessive salivation and vomiting (dogs; 600 μg per kilogram of body weight) | dogs showing severe depression, excessive salivation and vomiting (dogs; 1500 μg per kilogram of body weight) | condition at 24 hours post-inoculation (cats; 3 cats) | food intake (cats; 3 cats) | general condition following inoculation (cats; 3 cats) | diarrhea (cats; 3 cats, 2-5 hours post-inoculation) | vomiting, number of times (cats; 3 cats, over a period of 2-5 hours post-inoculation) | rectal temperature, peak (cats; seven hours post-inoculation) [° F] |
| --- | --- | --- | --- | --- | --- | --- | --- | --- | --- | --- | --- |
| 2-acetamido-2-deoxy-D-glucos-3-O-yl-acetyl-L-prolyl-D-isoglutamine | 5.4 | 8.0 | – | – | – | – | – | – | – | – | – |
| CC(=O)N[C@H]1C(O)O[C@H](CO)[C@@H](O)[C@@H]1OC(C)C(=O)N[C@H](C)C(=O)N[C@H](CCC(=O)O)C(N)=O (stereo partly drawn) [2-(2-acetamido-2-deoxy-D-glucos-3-0-yl)-D-propionyl-L-alanyl-D-isoglutamine] | 3.3 | 3.7 | two of the dogs | All of the dogs | All of the dogs | all animals had returned to normal | Food was refused | became depressed and unkempt | All animals had diarrhea | 4-6 times | 104 |
